Patent US9669061B2, “Medicinal agent exhibiting antiprotozoal activity to Trichomonas vaginalis in an in-vitro model system” (Viktor Ivanovich Roschin, priority 2008, dated 2017)
≈ marks a conversion by molar mass, not a printed value.

System: T. vaginalis isolates
Assay: Sensitivity of T. vaginalis isolates to metronidazole (serial dilution MIC by immobilisation; lysis method for amastigote forms)
Assay type: cell-based, Trichomonas vaginalis
Details: for MIC: Trichomonas vaginalis
Procedure: Then, the sensitivity of T. vaginalis to metronidazole was examined in vitro, using as an indicator the immobilisation of the trichomonad by the test-substance. For the sensitivity test, 90% or more of the protozoa were required to be motile. The sensitivity of T. vaginalis isolates to metronidazole was determined using serials dilution and the minimum inhibitory concentration (MIC) method. 4.0 ml of the medium was placed in test tubes and mixed with 0.5 ml of solution various concentrations of metronidazole—from 0.25 to 1000 μg/ml, or 1 mg/ml).
Then, 0.5 ml of pathogenic culture containing a known concentration of T. vaginalis (cells/ml) was added to the test tubes. Media without the test substance was used as a control. Vaseline was added to the surface (0.5 mm layer) of the tubes to create anaerobic conditions necessary for the growth of T.vaginalis. The test tubes were then placed in a thermostat at 37° C. Results were recorded 48 and 96 hours after inoculation.
The sensitivity of trichomonad to metronidazole was determined based on the minimum inhibitory concentration (MIC), which causes immobilisation of all cells of T.vaginalis. The strains were considered as resistant to metronidazole, when immobilisation occurred at concentration of metronidazole exceeding 15 μg/ml.
The MIC method cannot be used when atypical, amastigote (lacking flagella) T. vaginalis are present. Instead, a common in vitro lysis method for determining the sensitivity to antiprotozoal medications was used. Lysis of all trichomonas is an indicator of the efficacy of the test substance. Nutrient media containing trichomonas without metronidazole was used as a control. Metronidazole, at concentrations of 10, 15, 25, and 50 μg/ml was used in this experiment. Strains that lysed at a concentration of 25 μg/ml were considered resistant to metronidazole.

`Cc1ncc([N+](=O)[O-])n1CCO` [Metronidazole, metronidazole] gave an MIC (isolate 1 (actively mobile)) of 15 µg/mL (≈ 87.6 µM), an MIC (isolate 2 (actively mobile)) of 15 µg/mL (≈ 87.6 µM) and an MIC (isolate 3 (actively mobile)) of 25 µg/mL (≈ 146 µM). It also gave an MIC (isolate 4 (amastigote)) of 50 µg/mL (≈ 292 µM), an MIC (isolate 5 (amastigote)) of 25 µg/mL (≈ 146 µM) and an MIC (isolate 6 (amastigote)) of 50 µg/mL (≈ 292 µM). For the same compound, the MIC (isolate 7 (amastigote)) was 25 µg/mL (≈ 146 µM), the MIC (isolate 8 (amastigote)) was 25 µg/mL (≈ 146 µM) and the MIC (isolate 9 (amastigote)) was over 50 µg/mL. The MIC (isolate 10 (amastigote)) was 50 µg/mL (≈ 292 µM), the MIC (strains 4, 6, 9 and 10) was over 25 µg/mL and the “number of isolates (out of 10) on which metronidazole had an effect” value (metronidazole 15 μg/ml) was 2. For the same compound, the “resistance of isolates to metronidazole” value (the rest of the isolates (not affected at 15 μg/ml)) was “resistant”.
